Laboratory results from patent US20150051257A1, “SULPHONAMIDE DERIVATIVES OF BENZYLAMINE FOR THE TREATMENT OF CNS DISEASES” (ADAMED SP. Z O.O, priority 2012, published 2015).

What was measured:
[1] = system: α1 (non-selective); experiment: Radioligand binding assay, adrenergic α1 receptors; conditions: test compound 1×10^−6M; [3H]prazosin; rat cerebral cortex
Description: (§1) Specific ligand binding to the receptors is defined as the difference between the total binding and the non-specific binding determined in the presence of an excess of unlabelled ligand.
(§2) The results are expressed as a percent of control specific binding ((measured specific binding/control specific binding)×100%) obtained in the presence of the test compounds. The compounds were tested for their affinity to receptors at a concentration of 1×10^−6M.
(§3) Conditions and methodology of in vitro tests are given by reference to the literature in Table 1, and the results of tests for representative compounds are given in Table 2 (dopaminergic receptors D2 and D3), in Table 3 (dopaminergic receptors D1 and D4.4), in Table 4 (serotoninergic receptors 5-HT1A, 5-HT2A, 5-HT6, 5-HT7), in table 5 (serotoninergic receptors 5-HT2C), in Table 6 (sigma o receptors), in Table 7 (adrenergic receptors α1, histaminergic receptors H1 and muscarinic receptors M3), in Table 8 (adrenergic receptors α2C) and in Table 9 (serotonin transporter receptors SERT).

[2] = system: σ (non-selective); experiment: Radioligand binding assay, σ receptors; conditions: test compound 1×10^−6M; [3H]DTG; rat cerebral cortex
Description: as §1, §2, §3

[3] = biological target: T1, hERG potassium channels (KCNH2 gene, expressed in CHO cells) (Homo sapiens, UniProt Q12809); experiment: Ability to block hERG potassium channel (electrophysiology, IonWorks Quattro); type: cell-based; conditions: cloned hERG in CHO cells; test pulse +40 mV; concentration not given
T1 construct: expressed in transfected cells; host or cells: CHO cells
T1 sequence (Q12809 whole entry): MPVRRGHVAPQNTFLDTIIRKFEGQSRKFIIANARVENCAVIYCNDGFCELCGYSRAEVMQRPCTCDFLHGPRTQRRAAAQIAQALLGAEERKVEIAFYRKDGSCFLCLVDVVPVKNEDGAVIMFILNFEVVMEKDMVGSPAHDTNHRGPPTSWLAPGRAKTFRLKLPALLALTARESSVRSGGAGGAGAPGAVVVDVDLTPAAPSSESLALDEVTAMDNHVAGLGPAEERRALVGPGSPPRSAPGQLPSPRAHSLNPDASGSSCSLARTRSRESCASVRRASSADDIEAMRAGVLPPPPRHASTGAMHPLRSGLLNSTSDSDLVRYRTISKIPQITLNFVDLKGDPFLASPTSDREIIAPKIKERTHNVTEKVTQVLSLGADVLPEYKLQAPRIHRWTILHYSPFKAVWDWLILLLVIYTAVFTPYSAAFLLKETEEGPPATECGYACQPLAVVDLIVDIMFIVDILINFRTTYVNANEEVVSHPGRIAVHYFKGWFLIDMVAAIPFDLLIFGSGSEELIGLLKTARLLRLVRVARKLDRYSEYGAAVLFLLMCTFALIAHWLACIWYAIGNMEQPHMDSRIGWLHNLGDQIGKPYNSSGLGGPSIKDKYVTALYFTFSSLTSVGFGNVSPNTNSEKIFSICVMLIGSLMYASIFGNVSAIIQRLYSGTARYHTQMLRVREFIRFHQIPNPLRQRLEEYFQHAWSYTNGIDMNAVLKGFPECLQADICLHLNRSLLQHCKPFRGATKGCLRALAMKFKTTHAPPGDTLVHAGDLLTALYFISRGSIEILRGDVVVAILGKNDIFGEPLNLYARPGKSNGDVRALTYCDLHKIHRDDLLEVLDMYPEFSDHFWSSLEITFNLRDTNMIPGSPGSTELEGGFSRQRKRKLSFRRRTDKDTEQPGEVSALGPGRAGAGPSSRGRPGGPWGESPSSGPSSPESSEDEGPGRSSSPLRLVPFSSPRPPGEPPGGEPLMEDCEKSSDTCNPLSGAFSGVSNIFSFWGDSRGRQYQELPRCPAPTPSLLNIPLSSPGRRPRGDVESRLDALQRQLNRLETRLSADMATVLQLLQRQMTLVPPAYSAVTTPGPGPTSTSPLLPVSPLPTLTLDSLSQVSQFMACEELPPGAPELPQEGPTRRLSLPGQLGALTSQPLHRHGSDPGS
Description: Ability to Block hERG Potassium Channel Ability to block hERG potassium channels was determined using the electrophysiological method and cloned hERG potassium channels (KCNH2 gene, expressed in CHO cells) as biological material. The effects were evaluated using IonWorks™ Quattro system (MDS-AT).
hERG current was elicited using a pulse pattern with fixed amplitudes (conditioning pre-pulse: −80 mV for 25 ms; test pulse: +40 mV for 80 ms) from a holding potential of 0 mV. hERG current was measured as a difference between the peak current at 1 ms after the test step to +40 mV and the steady-state current at the end of the step to +40 mV.
Data acquisition and analyses were performed using the lonWorks Quattro™ system operation software (version 2.0.2; Molecular Devices Corporation, Union City, Calif.). Data were corrected for leak current.
The hERG block was calculated as: % Block=(1−I TA/IControl)×100%, where IControl and ITA were the currents elicited by the test pulse in control and in the presence of a test compound, respectively.

| SMILES | α1 [%] [1] | σ [%] [2] | hERG [%] (% Block) [3] |
| --- | --- | --- | --- |
| O=S(=O)(Nc1cccc(CNCCc2ccccc2)c1)c1ccc2ccccc2c1 [Compound 1, N-[3-[(phenylethylamino)methyl]phenyl]naphthalene-2-sulphonamide] | 26% | 83% | – |
| O=S(=O)(Nc1cccc(CNCCc2cccc(Cl)c2)c1)c1ccc2ccccc2c1 [Compound 6, N-[3-[[2-(3-chlorophenyl)ethylamino]methyl]phenyl]naphthalene-2-sulphonamide] | 53% | 73% | – |
| Cc1cccc(CCNCc2cccc(NS(=O)(=O)c3ccc4ccccc4c3)c2)c1 [Compound 8, N-[3-[[2-(3-methylphenyl)ethylamino]methyl]phenyl]naphthalene-2-sulphonamide] | 17% | 85% | – |
| COc1ccccc1CCNCc1cccc(NS(=O)(=O)c2ccc3ccccc3c2)c1 [Compound 9, N-[3-[[2-(2-methoxyphenyl)ethylamino]methyl]phenyl]naphthalene-2-sulphonamide] | 56% | – | – |
| COc1ccccc1OCCNCc1cccc(NS(=O)(=O)c2ccc3ccccc3c2)c1 [Compound 10, N-[3-[[2-(2-methoxyphenoxyl)ethylamino]methyl]phenyl]naphthalene-2-sulphonamide] | 20% | 74% | – |
| COc1cccc(CCNCc2cccc(NS(=O)(=O)c3ccc4ccccc4c3)c2)c1 [Compound 11, N-[3-[[2-(3-methoxyphenyl)ethylamino]methyl]phenyl]naphthalene-2-sulphonamide] | 18% | 76% | −4% |
| COc1ccc(CCNCc2cccc(NS(=O)(=O)c3ccc4ccccc4c3)c2)cc1 [Compound 14, N-[3-[[2-(4-methoxyphenyl)ethylamino]methyl]phenyl]naphthalene-2-sulphonamide] | 13% | 54% | – |
| O=S(=O)(Nc1cccc(CNCCc2cccc(O)c2)c1)c1ccc2ccccc2c1 [Compound 17, N-[3-[[2-(3-hydroxyphenyl)ethylamino]methyl]phenyl]naphthalene-2-sulphonamide] | 31% | 71% | – |
| O=S(=O)(Nc1cccc(CNCCOc2cccc3c2OCCO3)c1)c1cccc2ccccc12 [Compound 35, N-[3-[[2-(2,3-dihydro-1,4-benzodioxin-5-yloxy)ethylamino]methyl]phenyl]naphthalene-1-sulphonamide] | – | – | −1% |
| O=S(=O)(Nc1cccc(CNCCOc2cccc3c2OCCO3)c1)c1ccc2ccccc2c1 [Compound 36, N-[3-[[2-(2,3-dihydro-1,4-benzodioxin-5-yloxy)ethylamino]methyl]phenyl]naphthalene-2-sulphonamide] | – | – | 1% |
| O=S(=O)(Nc1cccc(CNCCOc2cccc3c2OCCO3)c1)c1csc2ccccc12 [Compound 43, N-[3-[[2-(2,3-dihydro-1,4-benzodioxin-5-yloxy)ethylamino]methyl]phenyl]benzothiophene-3-sulphonamide] | – | – | 10% |

Now from value to compound, other results behind:

| α1 [%] [1] | σ [%] [2] | SMILES | hERG [%] (% Block) [3] |
| --- | --- | --- | --- |
| 84% | 95% | O=S(=O)(Nc1cccc(CNCCOc2cccc3c2OCCO3)c1)c1ccc(I)cc1 [Compound 22, N-[3-[[2-(2,3-dihydro-1,4-benzodioxin-5-yloxy)ethylamino]methyl]phenyl]-4-iodobenzenesulphonamide] | – |
| 59% | 79% | Cc1cccc(S(=O)(=O)Nc2cccc(CNCCOc3cccc4[nH]ccc34)c2)c1 [Compound 49, N-[3-[[2-(1H-indol-4-yloxy)ethylamino]methyl]phenyl]-3-methyl-benzenesulphonamide] | 2% |
| 34% | 76% | O=S(=O)(Nc1cccc(CNCCOc2cccc3[nH]ccc23)c1)c1cccc2ccccc12 [Compound 51, N-[3-[[2-(1H-indol-4-yloxy)ethylamino]methyl]phenyl]naphthalene-1-sulphonamide] | 1% |
| 41% | 79% | O=S(=O)(Nc1cccc(CNCCOc2cccc3[nH]ccc23)c1)c1ccc2ccccc2c1 [Compound 52, N-[3-[[2-(1H-indol-4-yloxy)ethylamino]methyl]phenyl]naphthalene-2-sulphonamide] | 2% |
| 84% | 73% | CN(CCCc1noc2cc(F)ccc12)Cc1cccc(NS(=O)(=O)c2ccc(I)cc2)c1 [Compound 68, N-[3-[[3-(6-fluoro-1,2-benzoxazol-3-yl)propylmethylamino]methyl]phenyl]-4-iodobenzenesulphonamide] | – |
